Patent publication US6869964B2, “Heterocyclicsulfonamide hepatitis C virus inhibitors” (Bristol-Myers Squibb Company, priority 2002, dated 2005)

Legend:
[1] = molecular target: T1, HCV NS3/4A protease complex (J4L6S strain) (Hepatitis C virus genotype 1b, UniProt O92972, C1454S/C1711G); assay: Recombinant HCV NS3/4A protease complex FRET peptide assay, J4L6S strain; format: biochemical, HCV genotype 1b
T1 construct: HCV NS3/4A protease complex (amino acids 1027 to 1711); inferred from pET21b vector and Ni-NTA purification; made in house; host or cells: Escherichia coli BL21 (DE3), pET21b
T1 sequence (O92972 1658-1711, stated change not applied): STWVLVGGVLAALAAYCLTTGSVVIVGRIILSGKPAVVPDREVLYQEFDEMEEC
T1 sequence (O92972 1027-1711, looked up, stated change not applied): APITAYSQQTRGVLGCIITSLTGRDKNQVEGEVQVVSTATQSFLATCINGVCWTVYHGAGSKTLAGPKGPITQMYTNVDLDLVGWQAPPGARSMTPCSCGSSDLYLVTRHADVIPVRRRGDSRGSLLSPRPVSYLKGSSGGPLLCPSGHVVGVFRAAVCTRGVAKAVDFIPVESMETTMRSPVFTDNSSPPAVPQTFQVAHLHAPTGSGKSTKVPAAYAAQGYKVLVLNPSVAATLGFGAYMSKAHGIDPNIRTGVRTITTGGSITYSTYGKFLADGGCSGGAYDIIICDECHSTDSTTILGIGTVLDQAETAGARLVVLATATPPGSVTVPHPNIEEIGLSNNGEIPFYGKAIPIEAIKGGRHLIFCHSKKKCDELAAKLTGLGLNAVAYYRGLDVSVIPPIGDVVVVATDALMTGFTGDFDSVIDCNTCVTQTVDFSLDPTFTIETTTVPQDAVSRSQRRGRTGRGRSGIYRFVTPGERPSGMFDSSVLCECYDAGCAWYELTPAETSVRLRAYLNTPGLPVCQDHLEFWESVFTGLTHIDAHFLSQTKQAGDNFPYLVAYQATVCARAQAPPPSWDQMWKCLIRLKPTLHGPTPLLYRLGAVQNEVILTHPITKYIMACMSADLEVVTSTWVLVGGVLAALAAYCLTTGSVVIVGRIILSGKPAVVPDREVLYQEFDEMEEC
Excerpt: Recombinant HCV NS3/4A Protease Complex FRET Peptide Assay
The purpose of this in vitro assay was to measure the inhibition of HCV NS3 protease complexes, derived from the BMS, H77C or J4l6S strains, as described below, by compounds of the present invention. This assay provides an indication of how effective compounds of the present invention would be in inhibiting HCV proteolytic activity.
Serum from an HCV-infected patient was obtained from Dr. T. Wright, San Francisco Hospital. An engineered full-length cDNA template of the HCV genome (BMS strain) was constructed from DNA fragments obtained by reverse transcription-PCR (RT-PCR) of serum RNA and using primers selected on the basis of homology between other genotype la strains. From the determination of the entire genome sequence, a genotype la was assigned to the HCV isolate according to the classification of Simmonds et al. (See P Simmonds, K A Rose, S Graham, S W Chan, F McOmish, B C Dow, E A Follett, P L Yap and H Marsden, J. Clin. Microbiol., 31(6), 1493-1503 (1993)). […]

[2] = molecular target: T2, human sputum elastase (HS) (Homo sapiens, UniProt P08246); assay: Specificity assay, human sputum elastase; format: biochemical; settings: 2 hr enzyme-inhibitor pre-incubation
T2 construct: human sputum elastase (HS); from tissue; host or cells: human sputum (from the enzyme's name only)
T2 sequence (P08246 30-267): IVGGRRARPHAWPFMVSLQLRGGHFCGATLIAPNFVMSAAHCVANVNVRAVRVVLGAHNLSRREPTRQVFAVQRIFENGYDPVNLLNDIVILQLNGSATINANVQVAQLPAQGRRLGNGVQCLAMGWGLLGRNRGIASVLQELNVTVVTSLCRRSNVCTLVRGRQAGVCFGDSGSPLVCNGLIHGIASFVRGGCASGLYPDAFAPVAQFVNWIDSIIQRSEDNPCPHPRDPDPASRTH
Experimental: The specificities of compounds of the present invention were determined against a variety of serine proteases: human sputum elastase (HS), porcine pancreatic elastase (PPE) and human pancreatic chymotrypsin and one cysteine protease: human liver cathepsin B. In all cases a 96-well plate format protocol using colorimetric p-nitroaniline (pNA) substrate specific for each enzyme was used as described previously (CT 2633 application) with some modifications to the serine protease assays.
Each assay included a 2 hr enzyme-inhibitor pre-incubation at RT followed by addition of substrate and hydrolysis to ˜30% conversion as measured on a Spectramax Pro microplate reader. Compound concentrations varied from 100 to 0.4 μM depending on their potency.
The final conditions and protocol for the serine protease assays were: • 50 mM Tris(hydroxymethyl)aminomethane hydrochloride (Tris-HCl) pH8, • 0.5M Sodium Sulfate (Na2SO4), 50 mM NaCl, 0.1 mM EDTA, 3% DMSO, • 0.01% Tween-20 with: 133 μM succ-AAA-pNA and 20 nM HS or 8 nM PPE; 100 μM succ-AAPF-pNA and 250 pM Chymotrypsin.
The percentage of inhibition was calculated using the formula: [1−((UVinh−UVblank)/(UVctl−UVblank))]×100
A non-linear curve fit was applied to the inhibition-concentration data, and the 50% effective concentration (IC50) was calculated by the use of Excel Xl-fit software.

## C=CC1C[C@]1(NC(=O)[C@@H]1C[C@@H](Oc2cc(-c3ccccc3)nc3cc(OC)ccc23)CN1C(=O)[C@@H](NC(=O)OC(C)(C)C)C(C)(C)C)C(=O)NS(=O)(=O)c1cccs1 (stereo in doubt) [Compound 1, (1-{4-(7-Methoxy-2-phenylquinolin-4-yloxy)-2-[1-(thiophene-2-sulfonylaminocarbonyl)-2-vinyl-cyclopropylcarbamoyl]-pyrrolidine-1-carbonyl}-2,2-dimethylpropyl)carbamic acid tert-butyl ester]
[1]
  IC50: 0.0016 µM
[2]
  IC50: 35 µM
